This test deals with Mus musculus. Put plainly: Antiinflammatory activity in CD1 mouse assessed as inhibition of croton oil-induced ear oedema at 0.3 umol/cm^2 after 6 hrs. The class given is functional. On the set-up: scale not given: the % may be the effect or the level left.

This note sets out measurements from ChEMBL document CHEMBL1139817, “Synthesis and anti-inflammatory activity of 3-(4'-geranyloxy-3'-methoxyphenyl)-2-trans propenoic acid and its ester derivatives” (2007).

`COC(=O)/C=C/c1ccc(OC(=O)/C=C/c2ccc(OC/C=C(\C)CCC=C(C)C)c(OC)c2)c(OC(=O)/C=C/c2ccc(OC/C=C(\C)CCC=C(C)C)c(OC)c2)c1`: the Activity is 38%.

Regarding `Oc1ccc(O)cc1` [HYDROQUINONE], the Activity is reported as 4%.

`O=C1C[C@@H](c2ccc(O)cc2)Oc2cc(O)cc(O)c21` [NARINGENIN]: the Activity is listed as 43%.

On to `COc1cc(/C=C/C(=O)O)ccc1OC/C=C(\C)CCC=C(C)C`, for which the Activity turned out to be 41%.

On to `COC(=O)c1ccc(OC(=O)/C=C/c2ccc(OC/C=C(\C)CCC=C(C)C)c(OC)c2)c(OC)c1`, for which the Activity was 29%.

Turning to `COc1cc(C(=O)O)ccc1O` [VANILLIC ACID], the Activity is recorded as 20%.

Consider `COc1cc(/C=C/C(=O)Oc2ccc3c(c2)C(=O)c2ccc(OC(=O)/C=C/c4ccc(OC/C=C(\C)CCC=C(C)C)c(OC)c4)cc2C3=O)ccc1OC/C=C(\C)CCC=C(C)C`, for which the Activity worked out at 43%.

As to `COc1cc(/C=C/C(=O)O)ccc1O` [FERULATE], the Activity came to 16%.

As for `COC(=O)/C=C/c1ccc(OC(=O)/C=C/c2ccc(OC/C=C(\C)CCC=C(C)C)c(OC)c2)c(OC)c1`, the Activity was 43%.

As to `COc1cc(/C=C/C(=O)Oc2ccccc2OC)ccc1OC/C=C(\C)CCC=C(C)C`, the Activity is given as 49%.

Take `COc1ccc2c(c1)c(CC(=O)O)c(C)n2C(=O)c1ccc(Cl)cc1` [INDOMETHACIN]: the Activity is reported as 62%.

With `COc1cc(/C=C/C(=O)Oc2ccc(NC(C)=O)cc2)ccc1OC/C=C(\C)CCC=C(C)C`, the Activity amounted to 51%.

Turning to `O=C1C=C(O)C(=O)c2ccccc21` [LAWSONE], the Activity is on record as 23%.

For the compound `COC(=O)c1ccccc1OC(=O)/C=C/c1ccc(OC/C=C(\C)CCC=C(C)C)c(OC)c1`, the Activity is listed as 42%.

Consider `O=C(O)/C=C/c1ccc(O)c(O)c1` [CAFFEIC ACID], for which the Activity was found to be 6%.

In the case of `O=C(O)c1ccccc1O` [SALICYLIC ACID], the Activity was found to be 13%.

For the compound `O=C1c2ccc(O)cc2C(=O)c2ccc(O)cc21` [ANTHRAFLAVICACID], the Activity was found to be 22%.

Regarding `COc1cc(/C=C/C(=O)OC2=CC(=O)c3ccccc3C2=O)ccc1OC/C=C(\C)CCC=C(C)C`, the Activity worked out at 43%.

Turning to `CC(=O)Nc1ccc(O)cc1` [ACETAMINOPHEN], the Activity turned out to be 13%.

With `COc1cc(/C=C/C(=O)Oc2ccc3ccc(=O)oc3c2)ccc1OC/C=C(\C)CCC=C(C)C`, the Activity was determined as 38%.

Turning to `O=c1ccc2ccc(O)cc2o1` [UMBELLIFERONE], the Activity was 23%.

`COc1cc(/C=C/C(=O)Oc2ccc(OC(=O)/C=C/c3ccc(OC/C=C(\C)CCC=C(C)C)c(OC)c3)cc2)ccc1OC/C=C(\C)CCC=C(C)C`: the Activity worked out at 57%.

Take `COc1ccccc1O` [GUAIACOL]: the Activity is 10%.
